{"source": "paper PMC10180349", "about": "(Molecules, 2023)", "key": {"[1]": {"tested_on": "MDA-MB-231 cells", "assay": "Annexin V-FITC/PI flow cytometry apoptosis assay", "assay_type": "cell-based, Human", "details": "48 h", "procedure": "Cell apoptosis analysis was performed according to the manufacturer’s protocol of the Annexin V-FITC Detection kit (Beyotime, Shanghai, China). […] Finally, the samples were tested by flow cytometer (BD FACSCelesta) and analyzed using FlowJo Software (Tree Star Inc., Ashland, OR, USA). The PTX-treated group was used as a positive control."}, "[2]": {"tested_on": "caspase-3", "assay": "Caspase-3 activity assay in cell lysates", "assay_type": "cell-based, Human", "details": "MDA-MB-231, 0.1 and 1 nM, 48 h", "procedure": "The activity of caspase-3 was performed according to the manufacturer’s protocol of the Caspase-3 Activity Assay Kit (Beyotime, Shanghai, China). […] Then, the absorbance was measured at 405 nm using a Microplate Reader (Thermo 3001, Vantaa, Finland), and the protein concentration was obtained via Bradford assay. Data were normalized for the protein content of each supernatant and expressed as the relative value compared to the control. The PTX-treated group was used as a positive control."}, "[3]": {"tested_on": "MDA-MB-231 cells", "assay": "Transmission electron microscopy of treated cells", "assay_type": "cell-based, Human", "details": "MDA-MB-231, 0.1 nM, 48 h", "procedure": "Ultrathin sections were isolated, stained with uranyl acetate and lead citrate for 10 min, and finally observed through the Hitachi H-7650 transmission electron microscope (Tokyo, Japan). The PTX-treated group was used as a positive control."}, "[4]": {"tested_on": "4T1", "details": "SI = IC50 MCF 10A/IC50 4T1, 48 h"}, "[5]": {"tested_on": "MCF-7", "assay": "cells", "details": "Homo sapiens, MCF7, 48 h"}, "[6]": {"assay": "physchem", "details": "water, thermodynamic from solid"}, "[7]": {"assay": "Acute-toxicity experiment, single dose via tail vein"}}, "data": [{"smiles": "CC(=O)O[C@H]1C(=O)[C@@]2(C)[C@H]([C@H](OC(=O)c3ccccc3)[C@]3(O)C[C@H](OC(=O)[C@H](OC(=O)CN(CCN(CCN(CCN(CC(=O)O)CC(=O)O)CC(=O)O)CC(=O)O)CC(=O)O)[C@@H](NC(=O)c4ccccc4)c4ccccc4)C(C)=C1C3(C)C)[C@]1(OC(C)=O)CO[C@@H]1C[C@@H]2O", "note": "[PTX-TTHA, 3,6,9,12-Tetraazatetradecanedioic acid, 3,6,9,12-tetrakis(carboxymethyl)-1-[2-(benzoylamino)-1-[[[6,12b-bis(acetyloxy)-12-(benzoyloxy)-2a,3,4,4a,5,6,9,10,11,12,12a,12b-dodecahydro-4,11-dihydroxy-4a,8,13,13-tetramethyl-5-oxo-7,11-methano-1H-cyclodeca [3, 4]benz [1,2-b]oxet-9-yl]oxy]carbonyl]-2-phenylethyl] ester]", "values": [{"measurement": "cell apoptosis rate", "setting": "[1]; 0.1 nM, control 2.17% ± 0.76%", "value": "30.4% ± 3.61"}, {"measurement": "cell apoptosis rate", "setting": "[1]; 1 nM", "value": "50.5% ± 2.19"}, {"measurement": "caspase-3 activity compared with the control group", "setting": "[2]", "value": "significantly activated"}, {"measurement": "morphological changes of apoptosis (TEM)", "setting": "[3]", "value": "remarkable cellular apoptosis-related characteristics were observed"}, {"measurement": "selectivity index (SI)", "setting": "[4]", "value": 21.36}, {"measurement": "IC50", "setting": "[5]", "value": "15.8 ± 1.04", "unit": "nM"}, {"measurement": "solubility", "setting": "[6]", "value": "> 5000", "unit": "µg/mL"}, {"measurement": "histopathology of main organs (H&E)", "setting": "[7]; 138.6 mg/kg, single dose", "value": "No histological alterations were observed"}, {"measurement": "body weight change compared with controls", "setting": "[7]; 138.6 mg/kg, single dose, day 2, normal thereafter", "value": "slight weight loss"}, {"measurement": "blood biochemical and hematological test index values compared with control", "setting": "[7]; 138.6 mg/kg, single dose, day 3 and day 14", "value": "no significant differences"}, {"measurement": "toxic signs after administration", "setting": "[7]; 138.6 mg/kg, single dose, tail vein, 14 days", "value": "none of these toxic signs were observed"}, {"measurement": "acute toxicity on vital organs, hematological, and biochemical parameters", "setting": "[7]; limit dose 138.6 mg/kg, i.v.", "value": "no sign of acute toxicity"}]}]}
